{"source": "ChEMBL document CHEMBL1201862", "about": "“PubChem BioAssay data set” (2004)", "key": {"[1]": {"tested_on": "HeLa", "assay": "ATP-based viability loss in HeLa cells – cell-based, CellTiter-Glo luminescence, cherry-pick samples, cytotoxicity control for MITF activator project, dose response (AID 540259)", "format": "functional", "conditions": "Homo sapiens"}, "[2]": {"biological_target": "T1, Cysteine protease ATG4B (Homo sapiens, UniProt Q9Y4P1)", "T1 sequence (Q9Y4P1 whole entry)": "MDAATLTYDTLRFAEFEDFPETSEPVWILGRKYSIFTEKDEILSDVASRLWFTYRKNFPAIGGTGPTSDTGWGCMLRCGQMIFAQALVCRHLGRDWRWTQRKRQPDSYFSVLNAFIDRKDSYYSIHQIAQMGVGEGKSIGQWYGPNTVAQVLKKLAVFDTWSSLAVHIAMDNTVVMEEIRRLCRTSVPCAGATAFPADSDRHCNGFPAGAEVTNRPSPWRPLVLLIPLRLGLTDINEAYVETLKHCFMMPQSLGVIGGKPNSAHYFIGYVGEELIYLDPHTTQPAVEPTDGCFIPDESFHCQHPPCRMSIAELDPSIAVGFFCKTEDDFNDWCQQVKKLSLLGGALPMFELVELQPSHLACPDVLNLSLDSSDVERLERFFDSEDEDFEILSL", "format": "functional"}, "[3]": {"biological_target": "Phospholipase A2 (Homo sapiens, UniProt P04054)", "sequence (P04054 whole entry)": "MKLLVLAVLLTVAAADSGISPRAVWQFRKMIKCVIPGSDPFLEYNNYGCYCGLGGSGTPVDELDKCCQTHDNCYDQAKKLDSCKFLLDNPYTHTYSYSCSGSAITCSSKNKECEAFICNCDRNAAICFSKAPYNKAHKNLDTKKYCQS", "format": "functional"}, "[4]": {"biological_target": "T2, High affinity choline transporter 1 (Homo sapiens, UniProt Q9GZV3)", "T2 sequence (Q9GZV3 whole entry)": "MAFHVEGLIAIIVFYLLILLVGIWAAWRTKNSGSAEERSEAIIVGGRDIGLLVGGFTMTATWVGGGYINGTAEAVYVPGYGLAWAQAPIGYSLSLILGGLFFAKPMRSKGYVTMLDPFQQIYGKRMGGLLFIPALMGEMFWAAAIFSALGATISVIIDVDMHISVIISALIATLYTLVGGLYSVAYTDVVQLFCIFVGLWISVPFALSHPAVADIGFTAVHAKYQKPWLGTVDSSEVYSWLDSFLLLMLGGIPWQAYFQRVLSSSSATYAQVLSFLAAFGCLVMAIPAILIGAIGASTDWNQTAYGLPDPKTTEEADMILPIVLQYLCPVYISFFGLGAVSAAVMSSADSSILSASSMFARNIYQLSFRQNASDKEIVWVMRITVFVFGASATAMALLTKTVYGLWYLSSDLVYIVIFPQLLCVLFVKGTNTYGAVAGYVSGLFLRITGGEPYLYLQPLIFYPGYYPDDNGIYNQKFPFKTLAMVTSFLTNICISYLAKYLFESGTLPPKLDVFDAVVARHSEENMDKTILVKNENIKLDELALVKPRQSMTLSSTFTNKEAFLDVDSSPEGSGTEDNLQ", "assay": "human choline transporter blockers, potency – cell-based, 5-point CRC, membrane potential dye, dose response (AID 504840)", "format": "functional"}, "[5]": {"biological_target": "Glucose-6-phosphate 1-dehydrogenase (Homo sapiens, UniProt P11413)", "sequence (P11413 whole entry)": "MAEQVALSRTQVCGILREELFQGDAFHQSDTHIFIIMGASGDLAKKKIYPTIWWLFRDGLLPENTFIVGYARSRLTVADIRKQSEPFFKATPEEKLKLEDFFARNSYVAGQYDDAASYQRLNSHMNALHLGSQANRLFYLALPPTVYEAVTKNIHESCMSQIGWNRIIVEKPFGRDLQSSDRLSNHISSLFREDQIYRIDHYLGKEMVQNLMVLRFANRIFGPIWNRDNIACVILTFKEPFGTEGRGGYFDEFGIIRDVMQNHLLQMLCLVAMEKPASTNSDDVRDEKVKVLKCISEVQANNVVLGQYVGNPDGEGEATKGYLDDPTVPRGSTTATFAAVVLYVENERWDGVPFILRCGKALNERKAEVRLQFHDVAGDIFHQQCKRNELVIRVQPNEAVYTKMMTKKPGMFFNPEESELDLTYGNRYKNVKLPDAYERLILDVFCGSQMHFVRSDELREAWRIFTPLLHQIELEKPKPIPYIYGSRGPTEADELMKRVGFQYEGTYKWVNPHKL", "assay": "inhibition of Homo sapiens G6PD, dose series – biochemical, fluorescence, selectivity assay for P. falciparum G6PD inhibitor project, dose response (AID 504792)", "format": "functional"}, "[6]": {"assay": "NIH-3T3 fibroblast cytotoxicity, dose response, cytotoxicity control, cell-based, fluorescence, Alamar Blue, secondary assay (AID 2327);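 further: NIH-3T3 mouse fibroblasts cultured with fluconazole at 8 µg/mL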", "format": "functional"}, "[7]": {"assay": "fluconazole-exposed Candida albicans growth modulators – fluorescence, retest, confirmation (AID 2467)", "format": "functional, cell-based"}, "[8]": {"tested_on": "HEK293", "assay": "EBV LMP1 TES2 canonical NF-kB signalling blockers – cell-based, HEK293, luciferase, cherry-pick, dose response (AID 588343)", "format": "functional", "conditions": "Homo sapiens"}, "[9]": {"tested_on": "INS1", "assay": "INS-1E survival protection against cytokine death – cell-based, luminescence, retest, dose response (AID 449756);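 further: cell death triggered by IL-1 beta plus TNF-alpha plus IFN-gamma mixture; protective hits raise ATP signal compared with cytokine alone wells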", "format": "functional", "conditions": "Rattus norvegicus"}, "[10]": {"biological_target": "T3, Bcl-2-like protein 10 (Homo sapiens, UniProt Q9HD36)", "T3 sequence (Q9HD36 whole entry)": "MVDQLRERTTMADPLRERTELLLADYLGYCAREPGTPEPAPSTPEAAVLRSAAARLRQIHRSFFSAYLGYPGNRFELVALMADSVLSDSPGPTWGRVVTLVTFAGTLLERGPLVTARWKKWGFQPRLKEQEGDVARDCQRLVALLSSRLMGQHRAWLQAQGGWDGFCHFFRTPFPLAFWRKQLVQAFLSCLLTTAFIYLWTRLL", "assay": "Bcl-B/TR3 peptide binding disruption – biochemical, fluorescence polarization, FITC-TR3 peptide, selectivity assay for Bfl-1 inhibitor project, primary screen (AID 748);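 further: fluorescence polarization from a fluorescein-labelled TR3 peptide binding purified Bcl-B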"}, "[11]": {"biological_target": "Cytochrome P450 2C9 (Homo sapiens, UniProt P11712)", "sequence (P11712 whole entry)": "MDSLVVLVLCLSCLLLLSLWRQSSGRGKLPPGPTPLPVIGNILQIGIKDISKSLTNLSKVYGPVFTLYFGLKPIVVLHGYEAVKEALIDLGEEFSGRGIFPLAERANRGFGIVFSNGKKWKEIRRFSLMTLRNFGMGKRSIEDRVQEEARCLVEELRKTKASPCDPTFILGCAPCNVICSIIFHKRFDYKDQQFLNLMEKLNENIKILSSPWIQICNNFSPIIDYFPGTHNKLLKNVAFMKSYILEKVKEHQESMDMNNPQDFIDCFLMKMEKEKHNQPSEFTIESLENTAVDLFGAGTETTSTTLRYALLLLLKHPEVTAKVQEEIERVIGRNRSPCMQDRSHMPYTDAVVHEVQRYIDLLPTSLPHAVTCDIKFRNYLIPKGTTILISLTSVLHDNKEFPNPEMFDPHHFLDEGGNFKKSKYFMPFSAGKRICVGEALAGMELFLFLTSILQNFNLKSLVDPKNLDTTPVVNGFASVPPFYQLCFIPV"}, "[12]": {"biological_target": "T4, SUMO-activating enzyme (Homo sapiens, UniProt Q9UBT2)", "T4 sequence (Q9UBE0 whole entry)": "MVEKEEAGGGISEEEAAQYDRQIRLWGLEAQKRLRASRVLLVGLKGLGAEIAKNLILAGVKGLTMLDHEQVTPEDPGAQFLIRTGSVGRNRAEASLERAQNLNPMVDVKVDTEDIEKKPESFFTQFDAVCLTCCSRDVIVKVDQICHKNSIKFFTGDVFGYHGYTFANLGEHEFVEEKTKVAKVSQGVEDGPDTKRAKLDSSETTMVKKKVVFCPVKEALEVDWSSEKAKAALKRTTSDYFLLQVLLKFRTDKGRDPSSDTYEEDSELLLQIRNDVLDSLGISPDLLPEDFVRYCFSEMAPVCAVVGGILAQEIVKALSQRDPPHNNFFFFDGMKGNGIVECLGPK", "T4 sequence (Q9UBT2 whole entry)": "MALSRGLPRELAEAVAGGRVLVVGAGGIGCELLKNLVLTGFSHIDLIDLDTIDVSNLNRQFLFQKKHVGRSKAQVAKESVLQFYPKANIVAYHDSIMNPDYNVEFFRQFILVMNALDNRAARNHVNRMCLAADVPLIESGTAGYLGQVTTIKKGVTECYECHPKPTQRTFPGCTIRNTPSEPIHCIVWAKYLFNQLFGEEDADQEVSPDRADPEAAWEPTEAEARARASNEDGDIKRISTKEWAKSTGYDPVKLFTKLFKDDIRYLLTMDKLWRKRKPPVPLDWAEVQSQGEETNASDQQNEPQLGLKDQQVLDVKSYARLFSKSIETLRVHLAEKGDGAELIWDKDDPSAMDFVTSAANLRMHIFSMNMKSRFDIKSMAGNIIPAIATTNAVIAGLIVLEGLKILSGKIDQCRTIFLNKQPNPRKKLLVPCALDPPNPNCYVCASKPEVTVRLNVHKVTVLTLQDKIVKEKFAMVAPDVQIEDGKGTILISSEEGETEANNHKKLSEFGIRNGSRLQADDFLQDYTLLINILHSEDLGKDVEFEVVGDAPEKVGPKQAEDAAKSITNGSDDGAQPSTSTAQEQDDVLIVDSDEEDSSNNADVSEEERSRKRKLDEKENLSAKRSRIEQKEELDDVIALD", "assay": "blockers of UBC9-mediated SUMO conjugation – biochemical, AlphaScreen, SUMOylation inhibitor project, confirmation (AID 2018)", "format": "functional"}, "[13]": {"biological_target": "T4, SUMO-activating enzyme", "assay": "blockers of SAE1/SAE2–UBC9 SUMO transfer – biochemical, HTRF, uHTS, primary screen (AID 2006)", "format": "protein-complex assay"}, "[14]": {"assay": "viability of PTEN-deleted HCT116 cells – cell-based, HCT116 PTEN knockout, dose response (AID 1047);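 further: cells exposed to compound for 60 hours before readout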", "format": "functional"}, "[15]": {"biological_target": "T5, Calpain-2 catalytic subunit (Sus scrofa, UniProt P43367)", "T5 sequence (P43367 whole entry)": "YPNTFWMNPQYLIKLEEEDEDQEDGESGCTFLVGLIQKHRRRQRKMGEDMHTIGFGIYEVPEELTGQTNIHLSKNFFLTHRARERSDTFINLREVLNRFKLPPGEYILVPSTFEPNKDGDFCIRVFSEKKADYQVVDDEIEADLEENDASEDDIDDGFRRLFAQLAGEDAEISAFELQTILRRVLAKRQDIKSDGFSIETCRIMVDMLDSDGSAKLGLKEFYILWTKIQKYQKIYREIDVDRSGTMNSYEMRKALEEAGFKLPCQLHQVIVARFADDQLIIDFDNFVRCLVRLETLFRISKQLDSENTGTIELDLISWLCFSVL", "assay": "m-calpain protease blockers, concentration series – biochemical, fluorogenic peptide substrate, dose response (AID 1420)", "format": "functional"}, "[16]": {"assay": "viability of HCT116 lacking mutant beta-catenin – cell-based, human colon tumor, dose response (AID 1045);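 further: cells exposed to compound for 60 hours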", "format": "functional"}, "[17]": {"biological_target": "Cytochrome P450 2C19 (Homo sapiens, UniProt P33261)", "sequence (P33261 whole entry)": "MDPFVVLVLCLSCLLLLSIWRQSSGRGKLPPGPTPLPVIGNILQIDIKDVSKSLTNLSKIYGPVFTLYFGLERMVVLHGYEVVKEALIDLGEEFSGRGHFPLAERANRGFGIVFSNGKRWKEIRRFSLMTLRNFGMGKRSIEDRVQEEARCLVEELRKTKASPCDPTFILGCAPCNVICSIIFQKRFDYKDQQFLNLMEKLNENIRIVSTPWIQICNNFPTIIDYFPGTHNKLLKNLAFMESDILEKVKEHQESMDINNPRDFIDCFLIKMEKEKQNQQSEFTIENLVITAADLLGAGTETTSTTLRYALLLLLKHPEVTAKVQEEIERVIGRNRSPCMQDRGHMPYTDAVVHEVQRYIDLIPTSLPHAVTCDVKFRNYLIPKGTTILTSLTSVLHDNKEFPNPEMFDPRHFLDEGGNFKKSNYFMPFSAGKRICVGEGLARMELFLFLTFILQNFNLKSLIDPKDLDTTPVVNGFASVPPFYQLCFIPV", "assay": "Cytochrome panel assay with activity outcomes. Panel member name: p450-cyp2c19 Compounds with AC50 equal or less than 10 uM are considered active", "format": "functional", "conditions": "read-out: AC50"}, "[18]": {"biological_target": "T6, Leucine aminopeptidase (Plasmodium falciparum 3D7, UniProt Q8IL11)", "T6 sequence (Q8IL11 whole entry)": "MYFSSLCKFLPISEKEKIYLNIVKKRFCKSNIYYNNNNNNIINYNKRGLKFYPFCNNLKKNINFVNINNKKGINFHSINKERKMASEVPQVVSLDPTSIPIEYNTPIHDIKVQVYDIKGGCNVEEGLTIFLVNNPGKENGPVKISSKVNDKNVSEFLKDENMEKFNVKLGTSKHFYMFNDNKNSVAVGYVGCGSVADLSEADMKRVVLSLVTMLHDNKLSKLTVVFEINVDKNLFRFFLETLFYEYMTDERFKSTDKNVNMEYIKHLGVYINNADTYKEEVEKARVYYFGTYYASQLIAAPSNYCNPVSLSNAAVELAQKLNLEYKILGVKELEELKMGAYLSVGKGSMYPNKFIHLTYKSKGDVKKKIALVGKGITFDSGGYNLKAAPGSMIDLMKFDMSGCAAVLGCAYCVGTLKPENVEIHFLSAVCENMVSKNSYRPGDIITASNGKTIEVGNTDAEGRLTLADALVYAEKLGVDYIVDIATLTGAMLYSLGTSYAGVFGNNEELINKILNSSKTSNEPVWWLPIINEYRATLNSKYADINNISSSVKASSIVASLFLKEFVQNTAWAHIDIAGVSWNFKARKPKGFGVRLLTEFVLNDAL", "assay": "P. falciparum M17LAP inhibitors, primary screen, biochemical, fluorogenic H-Leu-NHMec substrate, 1536-well (AID 1619)", "format": "functional"}, "[19]": {"biological_target": "Dual specificity tyrosine-phosphorylation-regulated kinase 1A (Rattus norvegicus, UniProt Q63470)", "format": "biochemical, Homo sapiens"}}, "note": "The source made the active and inactive calls."}
{"smiles": "CC(=O)c1ccc(NC(=O)Nc2ccc3c(c2)nc(C)n3C)cc1", "values": [{"measurement": "AC50", "setting": "[1]", "result": "42.9 µM (active)"}]}
{"smiles": "CCCCCC(=O)Nc1ccccc1N1CCN(c2ccccc2)CC1", "values": [{"measurement": "IC50", "setting": "[2]", "result": "5.74 µM (active)"}, {"measurement": "IC50", "setting": "[3]", "result": "4.38 µM (active)"}]}
{"smiles": "COc1ccc2ncc(S(=O)(=O)c3ccccc3)c(N3CCC4(CC3)OCCO4)c2c1", "values": [{"measurement": "IC50", "setting": "[4]", "result": "14.5 µM (active)"}]}
{"smiles": "O=C(Nc1nnc(C2CC2)s1)c1ccc(Cl)nc1", "values": [{"measurement": "IC50", "setting": "[5]", "result": "> 80 µM (inactive)"}]}
{"smiles": "CC(=O)c1ccc(N2CCN(c3ccnc4cc(Cl)ccc34)CC2)cc1", "values": [{"measurement": "EC50", "setting": "[6]", "result": "> 160 µM (inactive)"}, {"measurement": "EC50", "setting": "[7]", "result": "4.05 µM (active)"}, {"measurement": "AC50", "setting": "[8]", "result": "54.4 µM (active)"}]}
{"smiles": "Cc1ccc(C(=O)Nc2ncc3c(Cl)cccc3n2)cc1", "values": [{"measurement": "AC50", "setting": "[8]", "result": "2.46 µM (active)"}]}
{"smiles": "CCC(=O)NC(c1cc(Cl)c2cccnc2c1O)C(C)C", "note": "(stereo not given)", "values": [{"measurement": "AC50", "setting": "[8]", "result": "6.68 µM (active)"}, {"measurement": "AC50", "setting": "[9]", "result": "1.86 µM (active)"}]}
{"smiles": "Cc1ccc(-n2nc3ccc(NC(=O)c4ccc5c(c4)OCO5)cc3n2)cc1", "values": [{"measurement": "IC50", "setting": "[10]", "result": "73.3 µM (inactive)"}, {"measurement": "AC50", "setting": "[11]", "result": "4.47 µM (inconclusive)"}]}
{"smiles": "Nn1c(CSc2nc3ccccc3o2)nnc1CSc1nc2ccccc2o1", "values": [{"measurement": "IC50", "setting": "[5]", "result": "> 80 µM (inactive)"}]}
{"smiles": "COc1ccc(-n2c(CNc3ccc(C)cc3)nnc2SCC(=O)Nc2nc(-c3ccccc3)cs2)cc1", "values": [{"measurement": "IC50", "setting": "[12]", "result": "39.7 µM (active)"}, {"measurement": "IC50", "setting": "[13]", "result": "21.9 µM (active)"}, {"measurement": "EC50", "setting": "[14]", "result": "2.49 µM (active)"}, {"measurement": "IC50", "setting": "[15]", "result": "21.4 µM (active)"}, {"measurement": "EC50", "setting": "[16]", "result": "2.75 µM (active)"}, {"measurement": "AC50", "setting": "[17]", "result": "0.355 µM (inconclusive)"}, {"measurement": "AC50", "setting": "[9]", "result": "6.07 µM (active)"}, {"measurement": "AC50", "setting": "[11]", "result": "7.94 µM (inconclusive)"}]}
{"smiles": "CC(=O)c1ccc2c(c1)Cc1cc(C(C)=O)ccc1-2", "values": [{"measurement": "AC50", "setting": "[1]", "result": "96.8 µM (active)"}]}
{"smiles": "COc1ccc(N2Nc3[nH]nc(N)c3N2)cc1", "values": [{"measurement": "IC50", "setting": "[18]", "result": "10.4 µM (active)"}, {"measurement": "AC50", "setting": "[19]", "result": "3.12 µM (active)"}]}
